These results are taken from patent US5596008A, “3,4-Diaryl substituted pyridines for the treatment of inflammation” (G. D. Searle & Co., priority 1995, dated 1997).

SMILES strings stand for the structures. Where two headings read alike, the source gives them in different places.

One assay addresses T1, COX-1 murine (Mus musculus, UniProt P22437).
T1 construct: A 2.0 kb fragment containing the coding region of either human or murine COX-1; made in house; host or cells: SF9 insect cells (recombinant baculovirus, vector pVL1393)
T1 sequence (P22437 27-602): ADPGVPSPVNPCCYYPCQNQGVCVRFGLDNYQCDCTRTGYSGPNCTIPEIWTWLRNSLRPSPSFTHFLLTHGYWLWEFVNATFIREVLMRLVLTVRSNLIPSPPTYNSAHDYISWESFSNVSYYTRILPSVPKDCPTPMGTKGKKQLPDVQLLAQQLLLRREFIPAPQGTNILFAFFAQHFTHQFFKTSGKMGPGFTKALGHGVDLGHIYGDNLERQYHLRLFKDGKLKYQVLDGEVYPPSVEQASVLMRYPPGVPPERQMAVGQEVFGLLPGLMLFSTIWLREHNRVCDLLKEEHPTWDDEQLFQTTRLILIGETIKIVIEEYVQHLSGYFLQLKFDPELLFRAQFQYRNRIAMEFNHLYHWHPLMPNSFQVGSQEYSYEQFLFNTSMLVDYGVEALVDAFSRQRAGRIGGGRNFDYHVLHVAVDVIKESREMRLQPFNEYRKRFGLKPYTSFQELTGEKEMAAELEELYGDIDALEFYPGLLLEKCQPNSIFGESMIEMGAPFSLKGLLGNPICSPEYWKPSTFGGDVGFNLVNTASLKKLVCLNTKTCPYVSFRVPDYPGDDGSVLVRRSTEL
As to the kind of experiment: COX-1 activity in vitro (recombinant enzyme, PGE2 ELISA). The following applies: arachidonic acid 10 μM, pH 8.0, pre-incubation 10-20 min, read-out: COX-1 murine ID50. It is filed as biochemical. The protocol: (§1) Evaluation of COX-1 and COX-2 activity in vitro
(§2) The COX-2 inhibition activity of the compounds of this invention illustrated in the Examples was determined by the following methods.
(§3) a. Preparation of recombinant COX baculoviruses
(§4) Recombinant COX-1 and COX-2 were prepared as described by Gierse et al, [J. Biochem., 305, 479-84 (1995)]. A 2.0 kb fragment containing the coding region of either human or murine COX-1 or human or murine COX-2 was cloned into a BamH1 site of the baculovirus transfer vector pVL1393 (Invitrogen) to generate the baculovirus transfer vectors for COX-1 and COX-2 in a manner similar to the method of D. R. O'Reilly et al (Baculovirus Expression Vectors: A Laboratory Manual (1992)). Recombinant baculoviruses were isolated by transfecting 4 μg of baculovirus transfer vector DNA into SF9 insect cells (2×10^8) along with 200 ng of linearized baculovirus plasmid DNA by the calcium phosphate method. See M. D. Summers and G. E. Smith, A Manual of Methods for Baculovirus Vectors and Insect Cell Culture Procedures, Texas Agric. Exp. Station Bull. 1555 (1987). Recombinant viruses were purified by three rounds of plaque purification and high titer (10^7 -10^8 pfu/ml) stocks of virus were prepared. For large scale production, SF9 insect cells were infected in 10 liter fermentors (0.5×10^6 /ml) with the recombinant baculovirus stock such that the multiplicity of infection was 0.1. After 72 hours the cells were centrifuged and the cell pellet homogenized in Tris/Sucrose (50 mM: 25%, pH 8.0) containing 1% 3-[(3-cholamidopropyl)dimethylammonio]-1-propanesulfonate (CHAPS). The homogenate was centrifuged at 10,000×G for 30 minutes, and the resultant supernatant was stored at -80° C. before being assayed for COX activity.
(§5) b. Assay for COX-1 and COX-2 activity:
(§6) COX activity was assayed as PGE2 formed/μg protein/time using an ELISA to detect the prostaglandin released. CHAPS-solubilized insect cell membranes containing the appropriate COX enzyme were incubated in a potassium phosphate buffer (50 mM, pH 8.0) containing epinephrine, phenol, and heme with the addition of arachidonic acid (10 μM). Compounds were pre-incubated with the enzyme for 10-20 minutes prior to the addition of arachidonic acid. Any reaction between the arachidonic acid and the enzyme was stopped after ten minutes at 37° C./room temperature by transferring 40 μl of reaction mix into 160 μl ELISA buffer and 25 μM indomethacin. The PGE2 formed was measured by standard ELISA technology (Cayman Chemical).
For orientation: ELISA stands for enzyme-linked immunosorbent assay.

The target of another assay is T2, COX-2 murine (Mus musculus, UniProt Q05769).
T2 construct: human or murine COX-2 was cloned into a BamH1 site of the baculovirus transfer vector pVL1393; made in house; host or cells: SF9 insect cells (recombinant baculovirus, vector pVL1393)
T2 sequence (Q05769 18-604): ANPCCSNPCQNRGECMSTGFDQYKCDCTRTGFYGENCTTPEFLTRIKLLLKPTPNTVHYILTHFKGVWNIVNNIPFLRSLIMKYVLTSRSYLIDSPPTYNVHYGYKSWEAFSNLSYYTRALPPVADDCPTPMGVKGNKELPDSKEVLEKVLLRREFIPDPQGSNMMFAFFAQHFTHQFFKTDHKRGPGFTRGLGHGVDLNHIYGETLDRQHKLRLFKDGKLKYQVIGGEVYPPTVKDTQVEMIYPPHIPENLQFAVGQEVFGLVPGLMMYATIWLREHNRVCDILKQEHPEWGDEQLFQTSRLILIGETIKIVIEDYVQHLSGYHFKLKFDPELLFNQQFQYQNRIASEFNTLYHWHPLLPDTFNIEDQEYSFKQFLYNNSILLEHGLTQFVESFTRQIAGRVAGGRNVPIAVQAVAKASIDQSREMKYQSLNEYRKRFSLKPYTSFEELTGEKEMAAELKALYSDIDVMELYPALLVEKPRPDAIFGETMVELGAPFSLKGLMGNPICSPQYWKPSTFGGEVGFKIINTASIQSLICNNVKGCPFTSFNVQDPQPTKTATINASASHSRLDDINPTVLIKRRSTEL
As to the kind of experiment: COX-2 activity in vitro (recombinant enzyme, PGE2 ELISA). It is filed as biochemical. Here is the method: as §1, §2, §3, §4, §5, §6

Where [1] appears, read: COX-2 murine, arachidonic acid 10 μM, pH 8.0, pre-incubation 10-20 min, read-out: COX-2 murine ID50.

As for `CS(=O)(=O)c1ccc(-c2cc(Br)nc(C(F)(F)F)c2-c2ccc(F)cc2)cc1` [Example 4, 2-Bromo-5-(4-fluorophenyl)-4-[4-(methylsulfonyl)phenyl]-6-(trifluoromethyl)pyridine], the IC50 is 600 nM at COX-1 murine and over 100000 nM on COX-2 murine (setting [1]).

For `C#CCOc1cc(-c2ccc(S(C)(=O)=O)cc2)c(-c2ccc(F)cc2)c(C(F)(F)F)n1` [Example 3, 5-(4-Fluorophenyl)-4-[4-(methylsulfonyl)phenyl]-2-(2-propynyloxy)-6-(trifluoromethyl)pyridine], the values for the IC50 on COX-1 murine and at COX-2 murine were 200 nM and over 30000 nM, respectively.

For `CCOc1cc(-c2ccc(S(C)(=O)=O)cc2)c(-c2ccc(F)cc2)c(C(F)(F)F)n1` [Example 2, 2-Ethoxy-5-(4-fluorophenyl)-4-[4-(methylsulfonyl)phenyl]-6-(trifluoromethyl)pyridine], the IC50 at COX-1 murine was 300 nM; at COX-2 murine (setting [1]), over 30000 nM.

Turning to `COc1cc(-c2ccc(S(C)(=O)=O)cc2)c(-c2ccc(F)cc2)c(C(F)(F)F)n1` [Example 1, 5-(4-Fluorophenyl)-2-methoxy-4-[4-(methylsulfonyl)phenyl]-6-(trifluoromethyl)pyridine], the IC50 at COX-1 murine was 300 nM; at COX-2 murine (setting [1]) it was over 30000 nM.
